{"source": "patent US10076522B2", "about": "“Systems and methods for treating bacterial infection” (priority 2016, dated 2018)", "key": {"[1]": {"experiment": "Acute IV toxicity in rats", "settings": "rat, in vivo"}, "[2]": {"experiment": "Acute IV toxicity in the mouse", "format": "in vivo"}, "in vivo": {"experiment": "in vivo", "settings": "both; for NOAEL at 28 day: marmoset", "experimental": "A repeated-dose, 4-week toxicity study was conducted in male and female rats, where single, daily IV bolus doses up to 60 mg/kg were given. […] A 28-day toxicity study was also conducted in male and female marmosets, where iclaprim mesylate was infused intravenously over a 20-minute interval."}, "[3]": {"experiment": "pH of a 1% solution in water", "format": "physicochemical"}, "physchem [4]": {"experiment": "physchem"}, "physchem [5]": {"experiment": "physchem", "settings": "20 °C, water"}, "[6]": {"tested_on": "acute bacterial skin and skin structure infections (ABSSSIs) suspected or confirmed to be due to Gram-positive pathogens", "experiment": "Phase III REVIVE-1 study, efficacy of fixed dose iclaprim versus vancomycin", "format": "in vivo, human", "settings": "ITT", "experimental": "Subjects were evaluated daily up to ETP, then every 48 to 72 hours through the end of treatment. If the last dose of study drug fell on a day when an evaluation was not planned, an additional evaluation visit was performed on that day (i.e., all EOT evaluations were performed on the last day [+2 days] of drug dose).\nThe infusion time and duration of treatment for both groups was 2 hours and 5 days (minimum duration) to 14 days (maximum duration), respectively.\nThe primary endpoint for clinical response (defined as the reduction in lesion size ≥20% compared to baseline) was evaluated in all randomized subjects at ETP (48 to 72 hours post-first dose). […] In addition, clinical outcome was evaluated by the investigator at EOT and TOC (7 to 14 days post EOT). The assessments of clinical outcome was categorized as cure, failure, or indeterminate.\nIclaprim was administered at a dose of 80 mg in 500 mL normal saline, infused over 2 hours q12h (every 12 hours) for 5 to 14 days. For subjects with moderate hepatic impairment (Child-Pugh Class B), iclaprim was administered at a dose of 40 mg in 500 mL normal saline, infused over 2 hours q12h for 5 to 14 days.\nDosing interval was every q12 h, q24 h, q48 h, or dosed by daily level based on creatinine clearance.\nThe primary efficacy endpoint was the proportion of randomized subjects who achieved an early clinical response (defined as reduction in the lesion size ≥20% compared to baseline) at 48 to 72 hours (ETP) and was evaluated among all randomized subjects (ITT population).\nThe NI bound were 10%. […] Equivalently, if the lower bound of the two-sided 95% CI for P1-P2 was greater than −0.100 based on the Z test with unpooled variance estimate, NI was concluded."}, "[7]": {"experiment": "Phase III REVIVE-1 study, safety (adverse events)", "settings": "REVIVE-1 safety population", "experimental": "All subjects who received any study drug were evaluated for safety on the basis of medical history and physical examinations, reports of clinical AEs, routine electrocardiography, and clinically significant findings from routine liver function tests, serum chemistry, hematology, coagulation, and urinalysis (UA) tests. All adverse events were recorded throughout the study period, up to and including the LFU phone call. While blinded to treatment assignment, the investigator categorized the severity of each AE and the potential for relationship to study drug. Serious AEs (SAEs) include those that were life threatening, led to prolongation of the existing hospitalization, a congenital anomaly/birth defect, or caused persistent or significant disability, incapacity, or death. Treatment-emergent AEs (TEAEs) were defined as those that start or worsen in severity during or after the first dose of study drug administration through end of study.\nSafety evaluation included incidence of TEAEs, laboratory test results (including liver function tests), vital signs, ECG results, and physical examination findings. All summaries of safety data was based on the safety population (all treated subjects).\nThe AE summary tables included subject (patient) counts. Therefore, if a subject experienced more than one episode of a particular AE, the subject was counted only once for that event. If a subject had more than one AE that was coded to the same preferred term, the subject was counted only once for that preferred term. Similarly, if a subject had more than one AE within a SOC, the subject was counted only once in that SOC."}, "[8]": {"settings": "in vivo, iv; cited from earlier work"}, "[9]": {"settings": "human, in vivo"}}, "note": "Where a name gives a salt, the structure may show the parent alone.", "data": [{"compound": "COc1cc(Cc2cnc(N)nc2N)c2c(c1OC)OC(C1CC1)C=C2", "note": "(racemic) [iclaprim mesylate, 5-[(2RS)-2-cyclopropyl-7,8-dimethoxy-2Hchromen-5-ylmethyl] pyrimidine-2,4-diamine methanesulfonate]", "values": [{"measurement": "LD50", "setting": "[1]; female rats", "value": "> 200", "unit": "mg/kg"}, {"measurement": "LD50", "setting": "[1]; male rats", "value": "150 to 200", "unit": "mg/kg"}, {"measurement": "HED of lowest lethal IV dose", "setting": "[2]", "value": 6.1, "unit": "mg/kg"}, {"measurement": "lowest lethal IV dose", "setting": "[2]", "value": 75, "unit": "mg/kg"}, {"measurement": "NOAEL at 28 day", "setting": "in vivo", "value": 3.9, "unit": "mg/kg/day"}, {"measurement": "NOAEL at 28 day", "setting": "in vivo; iv", "value": 30, "unit": "mg/kg/day"}, {"measurement": "dosage with histopathological changes at the injection sites", "setting": "in vivo; rat, iv, 4 week", "value": "≥ 10", "unit": "mg/kg/day"}, {"measurement": "NOAEL at 4 week", "setting": "in vivo; rat, iv, HED of NOAEL", "value": 3.9, "unit": "mg/kg/day"}, {"measurement": "NOAEL at 4 week", "setting": "in vivo; rat, iv, NOAEL", "value": "> 30", "unit": "mg/kg/day"}, {"measurement": "pH value of a 1% solution in water", "setting": "[3]", "value": 4.2}, {"measurement": "pKa", "setting": "physchem [4]", "value": 7.2}, {"measurement": "solubility", "setting": "physchem [5]", "value": "~10000", "unit": "µg/mL"}]}, {"compound": "CN[C@H](CC(C)C)C(=O)N[C@H]1C(=O)N[C@@H](CC(N)=O)C(=O)N[C@H]2C(=O)N[C@H]3C(=O)N[C@H](C(=O)N[C@H](C(=O)O)c4cc(O)cc(O)c4-c4cc3ccc4O)[C@H](O)c3ccc(c(Cl)c3)Oc3cc2cc(c3O[C@@H]2O[C@H](CO)[C@@H](O)[C@H](O)[C@H]2O[C@H]2C[C@](C)(N)[C@H](O)[C@H](C)O2)Oc2ccc(cc2Cl)[C@H]1O", "note": "[Vancomycin, vancomycin, reference compound]", "values": [{"measurement": "Early Clinical Response (ECR), percent of subjects", "setting": "[6]; ETP (48 to 72 hours)", "value": 81.0, "unit": "%"}, {"measurement": "Clinical cure, number of subjects", "setting": "[6]; TOC (7 to 14 days after study drug discontinuation)", "value": 261}, {"measurement": "Clinical cure, percent of subjects", "setting": "[6]; TOC", "value": 87.0, "unit": "%"}, {"measurement": "Deaths, number of subjects", "setting": "[7]", "value": 1}, {"measurement": "Deaths, percent of subjects", "setting": "[7]", "value": 0.3, "unit": "%"}, {"measurement": "Study drug related TEAEs, number of subjects", "setting": "[7]", "value": 53}, {"measurement": "Study drug related TEAEs, percent of subjects", "setting": "[7]", "value": 17.8, "unit": "%"}, {"measurement": "TEAE-related SAEs (Serious AEs), number of subjects", "setting": "[7]", "value": 12}, {"measurement": "TEAE-related SAEs (Serious AEs), percent of subjects", "setting": "[7]", "value": 4.0, "unit": "%"}, {"measurement": "TEAEs (Treatment Emergent Adverse Events), number of subjects", "setting": "[7]", "value": 128}, {"measurement": "TEAEs (Treatment Emergent Adverse Events), percent of subjects", "setting": "[7]", "value": 43.1, "unit": "%"}, {"measurement": "TEAEs leading to discontinuation of study drug, number of subjects", "setting": "[7]", "value": 13}, {"measurement": "TEAEs leading to discontinuation of study drug, percent of subjects", "setting": "[7]", "value": 4.4, "unit": "%"}]}, {"compound": "CC[C@H]1OC(=O)[C@H](C)[C@@H](O[C@H]2C[C@@](C)(OC)[C@@H](O)[C@H](C)O2)[C@H](C)[C@@H](O[C@@H]2O[C@H](C)C[C@H](N(C)C)[C@H]2O)[C@](C)(OC)C[C@@H](C)C(=O)[C@H](C)[C@@H](O)[C@]1(C)O", "note": "[clarithromycin]", "values": [{"measurement": "QTc prolongation", "setting": "[8]", "value": "3 to 11", "unit": "ms"}]}, {"compound": "CC(=O)NC[C@H]1CN(c2ccc(N3CCOCC3)c(F)c2)C(=O)O1", "note": "[linezolid, reference compound]", "values": [{"measurement": "adverse events related to QTc prolongation", "setting": "[9]", "value": 2, "unit": "cases"}]}]}
